Consider one molecule from PMC5693244 (European journal of medicinal chemistry, 2017).

Where only a bound is given, the exact number is not on record here.

One may read the amount remaining as what is left of the initial amount, in per cent. What is called efflux ratio is a quotient of directional permeabilities that is used to spot active efflux.

In one data set the test system is human neutrophils. Nature of the data set: Ca2+ mobilization in human neutrophils. It counts as cell-based. On the technique in general: A change in cytosolic calcium serves as a functional read-out for many receptors and channels.
The nature of data set [1]: Stability assays in rat liver microsomes. Type of data set: in vitro ADME. The settings on record: pH 7.4, Metabolic stability (% remaining), percent of parent compound remaining after 30-min incubation.
The test system of data set [2] is rat primary microglial cells. Nature of the data set: Lactate dehydrogenase. Type of data set: cell-based.
Data set [3] concerns rat primary microglial cells. Nature of the data set: MTT cell viability test in rat primary microglial cell cultures. Type of data set: cell-based. Background: Tetrazolium assays rely on reduction of a dye to a coloured formazan, in cell work by metabolically active cells.
For data set [4], the system named is NO production in rat microglial cell cultures. Nature of the data set: NO release assay. Type of data set: cell-based.
Data set [5] has as its system IL-1β production in rat microglial cell cultures. The data set can be described thus: IL-1β ELISA in rat microglial cell cultures. It counts as cell-based. Background: In an ELISA, binding on a coated surface is turned into a signal by an enzyme label.
The test system of data set [6] is TNF-α production in rat microglial cell cultures. Nature of the data set: TNF-α ELISA in rat microglial cell cultures. Type of data set: cell-based.
The nature of data set [7]: Bidirectional transport across hCMEC/D3 cell monolayer. It counts as in vitro ADME, human. To be noted: human.
The subject of another data set is hCMEC/D3 cells. Described as above. Type of data set: in vitro ADME, human. The settings on record: 100 μM, 2 h.
[8] abbreviates: basal conditions, 0.5–10 μM, 24 h.
[9] abbreviates: LPS-stimulated, pre-treatment with FPR2 antagonist WRW4.
[10] abbreviates: basal conditions, agonists 0.5 μM-10 μM.

Turning to `N#Cc1ccc(C[C@H](NC(=O)Nc2ccc(F)cc2)C(=O)NCC2(c3ccc(F)c(Cl)c3)CC2)cc1` [(S)-17, (S)-3-(4-Cyanophenyl)-N-[[1-(3-chloro-4-fluorophenyl)cyclopropyl]methyl]-2-[3-(4-fluorophenyl)ureido]propanamide], the “EC50, μM Neutrophils” value in the data set with human neutrophils was “submicromolar range”. In addition, the amount remaining at 0.5 h, 10 μM in data set [1] is more than 20%. The “Effect on LPS-induced cell death (LDH release)” value in data set [2] (LPS-stimulated, pre-treatment 1 μM and 5 μM) is on record as “effectively blocked LPS-induced cell death processes”. The “Effect on LDH release (cell death)” value in data set [2] (basal conditions, 50 μM) is recorded as “significant increase in death processes”. In data set [2] (setting [8]), the “Effect on LDH release” value is on record as “None of the compounds induced significant effects”. Further, in data set [3] (LPS-stimulated), the “Effect on metabolic activity (MTT) in LPS-stimulated cells” value is listed as “no effect was observed on metabolic activity”. The “Effect on conversion of MTT dye” value in data set [3] (basal conditions, 50 μM) is listed as “decreased the conversion of MTT dye”. Also, the “Effect on metabolic activity (MTT)” value in data set [3] (setting [8]) is on record as “None of the compounds induced significant effects”. The “Effect on LPS-increased NO level” value in data set [4] (LPS-stimulated, (S)-10 at 5 μM and 10 μM) is recorded as “no effect was observed”. The “Effect on NO level” value in data set [4] (basal conditions) is “did not induce any change in NO level”. The “Effect on LPS-evoked IL-1β production” value in data set [5] (LPS-stimulated, 0.5 to 10 μM) is on record as “effectively decrease LPS-evoked cytokine production”. Moreover, the “Block by WRW4 of effect on IL-1β” value in data set [5] (setting [9]) is on record as “able to block the effect”. Further, the “Effect on IL-1β production” value in data set [5] (setting [10]) was “did not induce any change”. The “Effect on LPS-evoked TNF-α production” value in [6] (LPS-stimulated, 0.5 to 10 μM) is listed as “effectively decrease LPS-evoked cytokine production”. The “Block by WRW4 of effect on TNF-α” value in [6] (setting [9]) is listed as “able to block the effect”. Further, the “Effect on TNF-α production” value in data set [6] (setting [10]) is “did not induce any change”. Further, in data set [7], the efflux ratio at 2 h, 100 μM was less than 3. Further, in the data set on hCMEC/D3 cells (apical-to-basolateral transport), the PappAB worked out at 145521 nm/s. The same molecule registered a PappBA with hCMEC/D3 cells (basolateral-to-apical transport) of 375981 nm/s.
